Reference: US5610310A, “Cyclic lipid derivatives as potent PAF antagonists” (Pohang Iron & Steel Co., Ltd, priority 1995, dated 1997)

How the values were obtained:
[1] = system: PAF-induced platelet aggregation, rabbit platelet-rich plasma; assay: Inhibitory action on PAF-induced platelet aggregation; type: cell-based, rabbit (New Zealand white); conditions: Oryctolagus cuniculus, rabbit PRP, PAF 5×10^-9 M, 37° C.
Experimental: Inhibitory action on PAF-induced platelet aggregation Blood was collected from the […] of conscious New Zealand white male rabbits weighing 2 to 3 kg using citric acid as an anticoagulant (one volume pan of 3% citric acid relative to 9 volume parts of the whole blood). […] PRP was diluted with PPP to adjust the number of platelets to about 3×10^5 /μl. […] Platelet aggregation was then examined by means of turbidimetry [Born, Nature, 194, 927(1962)] with dual channel aggegometer (Chrono-Log. Corp., Havertown, Pa.). As the control, physiological saline without test sample was used. The platelet aggregation inhibiting activities of the test sample are expressed as IC50, that is the concentration of the compound at which 50% of the aggregation is inhibited.

[2] = target: T1, PAF receptor (rabbit platelet membranes) (Oryctolagus cuniculus, UniProt G1TEI7); assay: PAF Receptor Binding Assay; conditions: 0.6 nM [^3 H]C18 -PAF, 60 minutes, room temperature, calculated as IC50/2
T1 construct: Rabbit platelets were prepared by centrifugation and washing; tissue Pel-Freez (Rogers, AR); host or cells: rabbit platelets (washed, from citrated whole blood; lysed membranes)
T1 sequence (G1TEI7 1-342): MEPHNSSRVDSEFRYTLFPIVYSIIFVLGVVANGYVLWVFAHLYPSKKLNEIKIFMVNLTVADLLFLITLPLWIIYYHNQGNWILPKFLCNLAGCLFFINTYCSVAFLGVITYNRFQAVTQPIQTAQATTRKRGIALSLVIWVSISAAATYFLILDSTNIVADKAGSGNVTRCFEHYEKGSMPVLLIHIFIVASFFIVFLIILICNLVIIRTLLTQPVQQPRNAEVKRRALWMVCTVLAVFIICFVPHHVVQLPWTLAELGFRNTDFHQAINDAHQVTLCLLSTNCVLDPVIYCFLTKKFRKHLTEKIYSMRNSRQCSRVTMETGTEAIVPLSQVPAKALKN
Experimental: PAF Receptor Binding Assay Citrated whole rabbit blood was obtained from Pel-Freez(Rogers, AR). Rabbit platelets were prepared by centrifugation and washing. The platelets were lysed by freeze-thawing and sonification; Platelet membranes were prepared by centrifugation and washing. Final membrane preparation were stored frozen in 10 mM Tris/5 mM MgCl2 /2 mM EDTA (TME buffer, pH 7.0) with 0.25M sucrose added for membrane stabilization. […] The final volume of the assay was 100 μl. […] The […] and removed. The bound radioactivity was quantitated with a Berthold TLC-Linear Analyzer model LB2842. […] Experiments were repeated at least once. […] Ki values of inhibitory binding constants were calculated according to the methods of the literature[Cheng et al., Biochem.

| Compound | IC50 [1] | Ki [2] |
| --- | --- | --- |
| CCCCCCCCCCCCCCCCCCNC(=O)OCC1(COC(=O)CCCCC[n+]2cccc3ccccc32)CSC1 [Example 41, N-[5-[[[3-[[(Octadecylcarbamoyl)oxy]methyl]-3-thietanyl]methoxy]carbonyl]pentyl]quinolinium bromide] | 57 nM | 30 nM |
| CCCCCCCCCCCCCCCCOCC1(COC(=O)CCCC[n+]2cccc3ccccc32)CSC1 [Example 42, N-[4-[[[3-[(Hexadecyoxy)methyl]-3-thietanyl]methoxy]carbonyl]butyl]quinolinium bromide] | 658 nM |  |
| CCCCCCCCCCCCCCCCCCNC(=O)OCC1(COC(=O)CCCC[n+]2cccc3ccccc32)CCCC1 [Example 23, N-[4-[[[1-[[(Octadecylcarbamoyl)oxy]methyl]1-cyclopentyl]methoxy]carbonyl]butyl]quinolinium bromide] | 95 nM | 9.4 nM |
| CCCCCCCCCCCCCCCCNC(=O)OCC1(COC(=O)N(Cc2cccc[n+]2CC)C(C)=O)COC1 [Example 8, 2-[[N-Acetyl-N-[[[3-[[(hexadecylcarbamoyl)oxy]methyl]-3-oxetanyl]methoxy]carbonyl]amino]methyl]-1-ethyl-pyridinium iodide] | 93 nM | 95 nM |
| CCCCCCCCCCCCCCCCOCC1(COC(=O)N(Cc2cccc[n+]2CC)C(C)=O)COC1 [Example 9, 2-[[N-Acetyl-N-[[[3-[(hexadecyloxy)methyl]-3-oxetanyl]methoxy]carbonyl]amino]methyl]-1-ethyl-pyridinium iodide] | 219 nM | 110 nM |
| CCCCCCCCCCCCCCCCNC(=O)OC[C@H]1C[C@H](COC(=O)N(Cc2cccc[n+]2CC)C(C)=O)S1 (relative stereo) [Example 29, trans-2-[[N-Acetyl-N-[[[4-[[(hexadecylcarbamoyl)oxy]methyl]-2-thietanyl]methoxy]carbonyl]amino]methyl]-1-ethyl-pyridinium chloride] | 21 nM | 9.8 nM |
| CCCCCCCCCCCCCCCCCCNC(=O)OC[C@H]1C[C@H](COC(=O)N(Cc2cccc[n+]2CC)C(C)=O)S1 (relative stereo) [Example 27, trans-2-[[N-Acetyl-N-[[[4-[[(Octadecylcarbamoyl)oxy]methyl]-2-thietanyl]methoxy]carbonyl]amino]methyl]-1-ethyl-pyridinium chloride] | 57 nM | 4.3 nM |
| CCCCCCCCCCCCCCCCCCNC(=O)OCC1(COC(=O)N(Cc2cccc[n+]2CC)C(C)=O)C[S+]([O-])C1 (stereo not shown) [Example 37, 2-[[N-Acetyl-N-[[[3-[[(octadecylcarbamoyl)oxy]methyl]thietane 1-oxide-3-yl]methoxy]carbonyl]amino]methyl]-1-ethyl-pyridinium iodide] | 125 nM | 9.3 nM |
| CCCCCCCCCCCCCCCCCCNC(=O)OC[C@H]1C[C@H](COCCCC[n+]2cccc3ccccc32)S1 (relative stereo) [Example 35, trans-N-[4-[[4-[[(Octadecylcarbamoyl)oxy]methyl]-2-thietanyl]methoxy]butyl]quinolinium bromide] | 275 nM |  |
| CCCCCCCCCCCCCCCCCCNC(=O)OC[C@@H]1C[C@@H](COC(=O)N(Cc2cccc[n+]2CC)C(C)=O)N1C(C)=O (relative stereo) [Example 43, 2-[[N-Acetyl-N-[[[4-[[(octadecylcarbamoyl)oxy]methyl]-1-acetylazetidine-2-yl]methoxy]carbonyl]amino]methyl]-1-ethyl-pyridinium chloride] | 29 nM | 35 nM |
| CCCCCCCCCCCCCCCCNC(=O)OC[C@@H]1C[C@@H](COC(=O)N(Cc2cccc[n+]2CC)C(=O)c2ccccc2OC)S1 (relative stereo) [Example 31, trans-2-[[N-(2-Methoxy)benzoyl-N-[[[4-[[(hexadecylcarbamoyl)oxy]methyl]-2-thietanyl]methoxy]carbonyl]amino]methyl]1-ethyl-pyridinium chloride] | 69 nM |  |
| CCCCCCCCCCCCCCCCCCNC(=O)OC[C@H]1C[C@H](COC(=O)CCCC[n+]2cccc3ccccc32)S1 (relative stereo) [Example 34, trans-N-[4-[[[4-[[(Octadecylcarbamoyl)oxy]methyl]-2-thietanyl]methoxy]carbonyl]butyl]quinolinium bromide] | 350 nM |  |
| CCCCCCCCCCCCCCCCCCNC(=O)OC[C@H]1C[C@H](COC(=O)N(Cc2cccc[n+]2CC)C(C)=O)C1 [Example 19, trans-2-[[N-Acetyl-N-[[[3-[[(octadecylcarbamoyl)oxy]methyl]-1-cyclobutyl]methoxy]carbonyl]amino]methyl]-1-ethyl-pyridinium iodide] | 56 nM | 4.3 nM |
| CCCCCCCCCCCCCCCCCCNC(=O)OCC1(COC(=O)N(Cc2cccc[n+]2CC)C(C)=O)CCCC1 [Example 16, 2-[[N-Acetyl-N-[[[1-[[(octadecylcarbamoyl)oxy]methyl]-1-cyclopentyl]methoxy]carbonyl]amino]methyl]-1-ethyl-pyridinium iodide] | 573 nM | 3.8 nM |
| CCCCCCCCCCCCCCCCNC(=O)OCC1(COC(=O)N(Cc2cccc[n+]2CC)C(C)=O)CCCC1 [Example 20, 2-[[N-Acetyl-N-[[[1-[[(hexadecylcarbamoyl)oxy]methyl]-1-cyclopentyl]methoxy]carbonyl]amino]methyl]-1-ethyl-pyridinium iodide] | 350 nM | 1.2 nM |
| CCCCCCCCCCCCCCCCCCNC(=O)OC[C@@H]1C[C@H](COC(=O)N(Cc2cccc[n+]2CC)C(C)=O)S1 (relative stereo) [Example 28, cis-2-[[N-Acetyl-N-[[[4-[[(octadecylcarbamoyl)oxy]methyl]-2-thietanyl]methoxy]carbonyl]amino]methyl]-1-ethyl-pyridinium chloride] | 61 nM | 9.8 nM |
| CCCCCCCCCCCCCCCCOC[C@H]1C[C@H](COC(=O)N(Cc2cccc[n+]2CC)C(C)=O)S1 (relative stereo) [Example 32, trans-2-[[N-Acetyl-N-[[[4-[(hexadecyloxy)methyl]-2-thietanyl]methoxy]carbonyl]amino]methyl]-1-ethyl-pyridinium chloride] | 52 nM | 20 nM |
| CCCCCCCCCCCCCCCCCCNC(=O)OCC1(COC(=O)CCCC[n+]2ccsc2)CCCC1 [Example 22, 3-[4-[[[1-[[(Octadecylcarbamoyl)oxy]methyl]-1-cyclopentyl]methoxy]carbonyl]butyl]thiazolium bromide] | 1140 nM |  |
| CCCCCCCCCCCCCCCCCCNC(=O)OC[C@@H]1C[C@@H](COC(=O)N(Cc2cccc[n+]2CC)C(=O)c2ccccc2OC)S1 (relative stereo) [Example 30] | 84 nM |  |
| CCCCCCCCCCCCCCCCCCNC(=O)OCC1(COC(=O)N(Cc2cccc[n+]2CC)C(C)=O)CS(=O)(=O)C1 [Example 38, 2-[[N-Acetyl-N-[[[3-[[(octadecylcarbamoyl)oxy]methyl]thietane 1,1-dioxide-3-yl]methoxy]carbonyl]amino]methyl]-1-ethyl-pyridinium iodide] | 178 nM | 278 nM |
